Experimental findings from US20050197350A1, “Novel quinoline, tetrahydroquinazoline, and pyrimidine derivatives and methods of treatment related to the use thereof” (TAISHO PHARMACEUTICAL CO., LTD., priority 2003, published 2005) are described below.

Molecules are shown by their SMILES.

The subject of the experiment is MCH receptors. As to the kind of experiment: MCH receptor activity class (method not given). As to conditions: MCH receptor; class by percent of control at 10^-7 M or IC50.

Regarding `CN(C)c1nc(N[C@H]2CC[C@@H](NC(=S)Nc3cccc(C(F)(F)F)c3)CC2)nc2c1CCCC2` [compound 1957], the class was 3 (Class 3 The value of percent of control at 10^−7 M was more than 60% or the value of IC50 was more than 200 nM.).

On to `Cc1ccc(NC(=S)N[C@H]2CC[C@@H](Nc3nc4c(c(N(C)C)n3)CCCC4)CC2)cc1` [compound 1959], for which the class is recorded as 3 (Class 3 The value of percent of control at 10^−7 M was more than 60% or the value of IC50 was more than 200 nM.).

For the molecule `Cc1ccccc1NC(=S)N[C@H]1CC[C@@H](Nc2nc3c(c(N(C)C)n2)CCCC3)CC1` [compound 1960], the class was 3 (Class 3 The value of percent of control at 10^−7 M was more than 60% or the value of IC50 was more than 200 nM.).

Consider `CN(C)c1nc(N[C@H]2CC[C@@H](NC(=S)NC(C)(C)C)CC2)nc2c1CCCC2` [compound 1961], for which the class is 3 (Class 3 The value of percent of control at 10^−7 M was more than 60% or the value of IC50 was more than 200 nM.).

For the molecule `CN(C)c1nc(N[C@H]2CC[C@@H](NC(=S)Nc3ccccc3Br)CC2)nc2c1CCCC2` [compound 1963], the class is on record as 3 (Class 3 The value of percent of control at 10^−7 M was more than 60% or the value of IC50 was more than 200 nM.).

For the molecule `CN(C)c1nc(N[C@H]2CC[C@@H](NC(=S)Nc3ccccc3Cl)CC2)nc2c1CCCC2` [compound 1964], the class is 3 (Class 3 The value of percent of control at 10^−7 M was more than 60% or the value of IC50 was more than 200 nM.).

For the molecule `CN(C)c1nc(N[C@H]2CC[C@@H](NC(=S)NCCc3ccccc3)CC2)nc2c1CCCC2` [compound 1965], the class is recorded as 3 (Class 3 The value of percent of control at 10^−7 M was more than 60% or the value of IC50 was more than 200 nM.).

In the case of `CCc1ccc(NC(=S)N[C@H]2CC[C@@H](Nc3nc4c(c(N(C)C)n3)CCCC4)CC2)cc1` [compound 1966], the class is 3 (Class 3 The value of percent of control at 10^−7 M was more than 60% or the value of IC50 was more than 200 nM.).

For the molecule `CSc1ccccc1NC(=S)N[C@H]1CC[C@@H](Nc2nc3c(c(N(C)C)n2)CCCC3)CC1` [compound 1967], the class is listed as 3 (Class 3 The value of percent of control at 10^−7 M was more than 60% or the value of IC50 was more than 200 nM.).

In the case of `CN(C)c1nc(N[C@H]2CC[C@@H](NC(=S)Nc3ccccc3OC(F)(F)F)CC2)nc2c1CCCC2` [compound 1968], the class is 3 (Class 3 The value of percent of control at 10^−7 M was more than 60% or the value of IC50 was more than 200 nM.).

In the case of `CN(C)c1nc(N[C@H]2CC[C@@H](NC(=S)Nc3ccccc3C(F)(F)F)CC2)nc2c1CCCC2` [compound 1969], the class was 3 (Class 3 The value of percent of control at 10^−7 M was more than 60% or the value of IC50 was more than 200 nM.).

Regarding `CN(C)c1nc(N[C@H]2CC[C@@H](NC(=S)Nc3ccc(F)c(F)c3F)CC2)nc2c1CCCC2` [compound 1970], the class is 3 (Class 3 The value of percent of control at 10^−7 M was more than 60% or the value of IC50 was more than 200 nM.).

Consider `CN(C)c1nc(N[C@H]2CC[C@@H](NC(=S)Nc3cccc(Cl)c3Cl)CC2)nc2c1CCCC2` [compound 1971], for which the class was 3 (Class 3 The value of percent of control at 10^−7 M was more than 60% or the value of IC50 was more than 200 nM.).

Consider `CN(C)c1nc(N[C@H]2CC[C@@H](NC(=S)Nc3ccc(F)cc3F)CC2)nc2c1CCCC2` [compound 1972], for which the class is 3 (Class 3 The value of percent of control at 10^−7 M was more than 60% or the value of IC50 was more than 200 nM.).

In the case of `COc1ccc(OC)c(NC(=S)N[C@H]2CC[C@@H](Nc3nc4c(c(N(C)C)n3)CCCC4)CC2)c1` [compound 1973], the class was 3 (Class 3 The value of percent of control at 10^−7 M was more than 60% or the value of IC50 was more than 200 nM.).

On to `CN(C)c1nc(N[C@H]2CC[C@@H](NC(=S)Nc3c(F)cccc3F)CC2)nc2c1CCCC2` [compound 1974], for which the class is on record as 3 (Class 3 The value of percent of control at 10^−7 M was more than 60% or the value of IC50 was more than 200 nM.).

In the case of `CN(C)c1nc(N[C@H]2CC[C@@H](NC(=S)Nc3ccc([N+](=O)[O-])cc3Cl)CC2)nc2c1CCCC2` [compound 1975], the class is 3 (Class 3 The value of percent of control at 10^−7 M was more than 60% or the value of IC50 was more than 200 nM.).

As to `CN(C)c1nc(N[C@H]2CC[C@@H](NC(=S)Nc3ccccc3OC(F)F)CC2)nc2c1CCCC2` [compound 1976], the class is listed as 3 (Class 3 The value of percent of control at 10^−7 M was more than 60% or the value of IC50 was more than 200 nM.).

Consider `CN(C)c1nc(N[C@H]2CC[C@@H](NC(=S)Nc3cc(C(F)(F)F)ccc3F)CC2)nc2c1CCCC2` [compound 1977], for which the class is 3 (Class 3 The value of percent of control at 10^−7 M was more than 60% or the value of IC50 was more than 200 nM.).

As for `CN(C)c1nc(N[C@H]2CC[C@@H](NC(=S)Nc3ccccc3F)CC2)nc2c1CCCC2` [compound 1978], the class is reported as 3 (Class 3 The value of percent of control at 10^−7 M was more than 60% or the value of IC50 was more than 200 nM.).

For `CN(C)c1nc(N[C@H]2CC[C@@H](NC(=S)Nc3ccccc3I)CC2)nc2c1CCCC2` [compound 1979], the class was 3 (Class 3 The value of percent of control at 10^−7 M was more than 60% or the value of IC50 was more than 200 nM.).

As to `CN(C)c1nc(N[C@H]2CC[C@@H](NC(=S)Nc3cccc(SC(F)(F)F)c3)CC2)nc2c1CCCC2` [compound 1980], the class is recorded as 3 (Class 3 The value of percent of control at 10^−7 M was more than 60% or the value of IC50 was more than 200 nM.).

Turning to `CN(C)c1nc(N[C@H]2CC[C@@H](NC(=S)Nc3cc(Cl)cc(Cl)c3)CC2)nc2c1CCCC2` [compound 1981], the class is 3 (Class 3 The value of percent of control at 10^−7 M was more than 60% or the value of IC50 was more than 200 nM.).

Take `CN(C)c1nc(N[C@H]2CC[C@@H](NC(=S)Nc3cc(F)cc(F)c3)CC2)nc2c1CCCC2` [compound 1982]: the class is 3 (Class 3 The value of percent of control at 10^−7 M was more than 60% or the value of IC50 was more than 200 nM.).

Regarding `CN(C)c1nc(N[C@H]2CC[C@@H](NC(=S)Nc3cccc(C#N)c3)CC2)nc2c1CCCC2` [compound 1983], the class is listed as 3 (Class 3 The value of percent of control at 10^−7 M was more than 60% or the value of IC50 was more than 200 nM.).

Take `CN(C)c1nc(N[C@H]2CC[C@@H](NC(=S)Nc3cccc(F)c3)CC2)nc2c1CCCC2` [compound 1984]: the class is 3 (Class 3 The value of percent of control at 10^−7 M was more than 60% or the value of IC50 was more than 200 nM.).

As to `CN(C)c1nc(N[C@H]2CC[C@@H](NC(=S)Nc3cccc(I)c3)CC2)nc2c1CCCC2` [compound 1985], the class was 3 (Class 3 The value of percent of control at 10^−7 M was more than 60% or the value of IC50 was more than 200 nM.).

For the molecule `COc1cccc(NC(=S)N[C@H]2CC[C@@H](Nc3nc4c(c(N(C)C)n3)CCCC4)CC2)c1` [compound 1986], the class is 3 (Class 3 The value of percent of control at 10^−7 M was more than 60% or the value of IC50 was more than 200 nM.).

`CN(C)c1nc(N[C@H]2CC[C@@H](NC(=S)Nc3ccc(OC(F)F)cc3)CC2)nc2c1CCCC2` [compound 1987]: the class is listed as 3 (Class 3 The value of percent of control at 10^−7 M was more than 60% or the value of IC50 was more than 200 nM.).

In the case of `CN(C)c1nc(N[C@H]2CC[C@@H](NC(=S)Nc3ccc(OC(F)(F)F)cc3)CC2)nc2c1CCCC2` [compound 1988], the class is reported as 3 (Class 3 The value of percent of control at 10^−7 M was more than 60% or the value of IC50 was more than 200 nM.).

Take `CN(C)c1nc(N[C@H]2CC[C@@H](NC(=S)Nc3ccc(C(F)(F)F)cc3)CC2)nc2c1CCCC2` [compound 1989]: the class is 3 (Class 3 The value of percent of control at 10^−7 M was more than 60% or the value of IC50 was more than 200 nM.).

In the case of `CN(C)c1nc(N[C@H]2CC[C@@H](NC(=S)Nc3ccc(SC(F)(F)F)cc3)CC2)nc2c1CCCC2` [compound 1990], the class is listed as 3 (Class 3 The value of percent of control at 10^−7 M was more than 60% or the value of IC50 was more than 200 nM.).

In the case of `CN(C)c1nc(N[C@H]2CC[C@@H](NC(=S)Nc3ccc(Br)cc3F)CC2)nc2c1CCCC2` [compound 1991], the class is recorded as 3 (Class 3 The value of percent of control at 10^−7 M was more than 60% or the value of IC50 was more than 200 nM.).

In the case of `CN(C)c1nc(N[C@H]2CC[C@@H](NC(=S)Nc3ccc(Cl)c(C(F)(F)F)c3)CC2)nc2c1CCCC2` [compound 1992], the class is listed as 3 (Class 3 The value of percent of control at 10^−7 M was more than 60% or the value of IC50 was more than 200 nM.).

On to `CN(C)c1nc(N[C@H]2CC[C@@H](NC(=S)Nc3ccc(F)c(C(F)(F)F)c3)CC2)nc2c1CCCC2` [compound 1993], for which the class is reported as 3 (Class 3 The value of percent of control at 10^−7 M was more than 60% or the value of IC50 was more than 200 nM.).

`Cc1ccc(Cl)cc1NC(=S)N[C@H]1CC[C@@H](Nc2nc3c(c(N(C)C)n2)CCCC3)CC1` [compound 1994]: the class is listed as 3 (Class 3 The value of percent of control at 10^−7 M was more than 60% or the value of IC50 was more than 200 nM.).

`CN(C)c1nc(N[C@H]2CC[C@@H](NC(=S)NC3CC4CCC3C4)CC2)nc2c1CCCC2` (stereo partly shown) [compound 1995]: the class is reported as 3 (Class 3 The value of percent of control at 10^−7 M was more than 60% or the value of IC50 was more than 200 nM.).

Regarding `CN(C)c1nc(N[C@H]2CC[C@@H](NC(=S)Nc3ccc(NC(=O)OC(C)(C)C)cc3)CC2)nc2c1CCCC2` [compound 1996], the class is reported as 3 (Class 3 The value of percent of control at 10^−7 M was more than 60% or the value of IC50 was more than 200 nM.).

Regarding `COc1ccc(CCNC(=S)N[C@H]2CC[C@@H](Nc3nc4c(c(N(C)C)n3)CCCC4)CC2)cc1OC` [compound 1997], the class is on record as 3 (Class 3 The value of percent of control at 10^−7 M was more than 60% or the value of IC50 was more than 200 nM.).

Turning to `CN(C)c1nc(N[C@H]2CC[C@@H](NC(=S)NCCc3ccc(Cl)cc3)CC2)nc2c1CCCC2` [compound 1998], the class is given as 3 (Class 3 The value of percent of control at 10^−7 M was more than 60% or the value of IC50 was more than 200 nM.).
